What was measured:
[1] = Retention of the opacifying metal at the injection site; assay type: in vivo; settings: guinea pig, 10 μmol Gd/kg s.c.
Description: After s.c. administration of 10 μmol of total gadolinium/kg of body weight in the guinea pig paw, the retention of metal at the injection site was studied at different times.

[2] = Organ distribution of the contrast medium after s.c. administration; assay type: in vivo; settings: guinea pigs, 10 μmol Gd/kg s.c., 7 days after administration
Description: After subcutaneous administration of 10 μmol of total gadolinium/kg of body weight in the hind paw of stimulated guinea pigs (complete Freund adjuvant; 0.1 ml i.m in the right and left lower leg in each case; 2 weeks before the test are administered), the retention of the metal in the […] as in the kidneys and spleen was examined 7 days administration.

[3] = Relaxivity of compounds according to the invention; assay type: physicochemical; settings: 0.47 T and 37° C.
Description: Relaxivity of Compounds According to the Invention

[4] = Compatibility of compounds according to the invention (LD 50); settings: in vivo
Description: Compatibility of Compounds According to the Invention

[5] = Lymph node visualization (MRT) after interstitial administration of contrast medium; assay type: in vivo; settings: guinea pigs, 10 μmol of Gd/kg s.c., 15 or 30 minutes, T1-weighted gradient echo images
Description: MR images of popliteal, inguinal and iliac lymph nodes both before (Precontrast) and 15 or 30 minutes after subcutaneous administration (guinea pigs, hind paw, interdigital space) of the substance of Example 5e or of Example 3c (in each case 10 μmol of Gd/kg of body weight) were taken.

[6] = Blood level and pharmacokinetics after intravenous administration, in vivo comparison with Dy-DTPA; settings: rats, i.v. 100 μmol/kg; for Vd ss / α-t½ / β-t½: n=3; for blood concentrations compared with Dy-DTPA: all examination times 1-120 minutes p.i.
Description: Three 350 g male (Schering-SPF) rats are used as test animals. 0.33-0.37 ml (in each case 100 mmol/L) of the following contrast medium solution is administered intravenously to each animal: mixture of 1 part each of a perfluoroalkyl-containing compound and the dysprosium-complex of (Dy-DTPA). The administered dose is in each case 100 μmol of Gd or Dy/kg of body weight. Via a catheter in the common carotid artery, blood samples are taken at the following times: 1, 3, 5, 10, 15, 20, 30, 45, 60, 90, 120 minutes p.i. In the blood samples that are obtained, in each case the concentrations of gadolinium (Gd) and dysprosium (Dy) are measured in parallel using atomic emission spectrometry (ICP-AES). The proportion of the injected compounds (Gd-containing perfluoroalkyl-containing compound and Dy-containing comparison substance) that remains in the blood space can be compared in the same animal by the different labeling. The α- and β-half life, the distribution volume and the total clearance can be calculated from the blood concentrations using special software (Topfit program). […]

[7] = Table 2: plasma, mixture of 4c and Dy-DTPA
[8] = Table 1: plasma, mixture of 5e and Dy-DTPA

| Gadolinium Content at the Injection Site (Paw) ([1]; 7 days p.i.) | Gadolinium Content in Kidneys [2] | Gadolinium Content in Liver [2] | Gadolinium Content in Spleen [2] | Molecule | Gadolinium Content at the Injection Site (Paw) ([1]; 30 min. p.i.) | Gadolinium Content at the Injection Site (Paw) ([1]; 90 min. p.i.) | R1 in Plasma [3] | R1 in Water [3] | LD 50 [4] | MR signal in popliteal, inguinal and iliac lymph nodes of the injected body side vs non-injected side or precontrast [5] | Vd ss [6, 7] | α-t½ [6, 7] | β-t½ [6, 7] | distribution volume compared to Dy-DTPA [6] | blood concentrations compared with Dy-DTPA [6] | Vd ss [6, 8] | α-t½ [6, 8] | β-t½ [6, 8] |
| --- | --- | --- | --- | --- | --- | --- | --- | --- | --- | --- | --- | --- | --- | --- | --- | --- | --- | --- |
| 0.6% of dose | 0.1% of dose | 1.5% of dose | 0.0% of dose | 1,4,7-Tris(carboxylatomethyl)-10-{(3-aza-4-oxo-hexan-5-ylic)-acid- [N-4,7,10,17-tetraoxa-14-aza-17-oxo-C20-C28-hepta-decafluoro)-heptacosyl]-amide}-1,4,7,10-tetraazacyclododecane, gadolinium complex [Example 6b] | 66.4% of dose | 26.1% of dose | 13.3 L/mmol/s | 11.6 L/mmol/s |  |  |  |  |  |  |  |  |  |  |
|  |  |  |  | COCCN(CCOCCC(F)(F)C(F)(F)C(F)(F)C(F)(F)C(F)(F)C(F)(F)C(F)(F)C(F)(F)F)C(=O)CNC(=O)C(C)N1CCN(CC(=O)[O-])CCN(CC(=O)[O-])CCN(CC(=O)[O-])CC1.[Gd+3] (stereo not shown) [Example 1c] |  |  | 25.7 L/mmol/s | 13.8 L/mmol/s |  |  |  |  |  |  |  |  |  |  |
|  |  |  |  | CC(C(=O)NCC(=O)N(CCOCCC(F)(F)C(F)(F)C(F)(F)C(F)(F)C(F)(F)C(F)(F)C(F)(F)C(F)(F)F)CC(O)CO)N1CCN(CC(=O)[O-])CCN(CC(=O)[O-])CCN(CC(=O)[O-])CC1.[Gd+3] (stereo not shown) [Example 2c] |  |  | 19.6 L/mmol/s | 11.8 L/mmol/s | 3 mmol of Gd/kg of body weight |  |  |  |  |  |  |  |  |  |
|  |  |  |  | CC(C(=O)NCC(=O)N(CCO)CCOCCC(F)(F)C(F)(F)C(F)(F)C(F)(F)C(F)(F)C(F)(F)C(F)(F)C(F)(F)F)N1CCN(CC(=O)[O-])CCN(CC(=O)[O-])CCN(CC(=O)[O-])CC1.[Gd+3] (stereo not shown) [Example 4c] |  |  | 21.9 L/mmol/s | 14.4 L/mmol/s | 0.3 mmol of Gd/kg of body weight |  | 0.12 ± 0.00 L/kg | 1.01 ± 0.32 min | 79.68 ± 12.26 min | significantly smaller distribution volume | significantly higher blood concentrations |  |  |  |
|  |  |  |  | COCCOCCOCCOCCOCCN(CCOCCC(F)(F)C(F)(F)C(F)(F)C(F)(F)C(F)(F)C(F)(F)C(F)(F)C(F)(F)F)C(=O)CNC(=O)C(C)N1CCN(CC(=O)[O-])CCN(CC(=O)[O-])CCN(CC(=O)[O-])CC1.[Gd+3] (stereo not shown) [Example 5e] | 8.5% of dose | 9.4% of dose | 30.3 L/mmol/s | 12.4 L/mmol/s | 15 mmol of Gd/kg of body weight | strong signal increase |  |  |  | significantly smaller distribution volume | significantly higher blood concentrations | 0.16 ± 0.03 L/kg | 3.77 ± 0.75 min | 102.29 ± 24.48 min |
| 1.3% of dose | 0.2% of dose | 6.2% of dose | 0.0% of dose | CC(C(=O)NCC(=O)NCCOCCC(F)(F)C(F)(F)C(F)(F)C(F)(F)C(F)(F)C(F)(F)C(F)(F)C(F)(F)F)N1CCN(CC(=O)[O-])CCN(CC(=O)[O-])CCN(CC(=O)[O-])CC1.[Gd+3] (stereo not shown) [Example 7, 1,4,7-Tris(carboxylatomethyl)-10-[-(3-aza-4-oxo-hexan-5-ylic)-acid-N-(1H,1H,2H,2H,4H,4H,5H,5H-3-oxa-perfluorotridecyl)-amide]-1,4,7, 10-tetraaza-cyclododecane, gadolinium complex] | 54.2% of dose | 36.8% of dose | 21.0 L/mmol/s | 18.1 L/mmol/s |  |  |  |  |  |  |  |  |  |  |
|  |  |  |  | CC(C(=O)NCC(=O)NCCNS(=O)(=O)C(F)(F)C(F)(F)C(F)(F)C(F)(F)C(F)(F)C(F)(F)C(F)(F)C(F)(F)F)N1CCN(CC(=O)[O-])CCN(CC(=O)[O-])CCN(CC(=O)[O-])CC1.[Gd+3] (stereo not shown) [Example 10c, 1,4,7-Tris(carboxylatomethyl)-10-{(3-aza-4-oxo-hexan-5-ylic)-acid-N-[(2-perfluorooctylsulfonylamino)-ethyl]-amide}-1,4,7,10-tetraazacyclododecane, gadolinium complex] |  |  | 27.8 L/mmol/s | 21.6 L/mmol/s |  |  |  |  |  |  |  |  |  |  |
|  |  |  |  | Dy-DTPA [reference compound] |  |  |  |  |  |  | 0.15 ± 0.03 L/kg | 0.89 ± 0.32 min | 21.37 ± 2.18 min |  |  | 0.29 ± 0.09 L/kg | 2.19 ± 0.59 min | 62.59 ± 37.47 min |

| Molecule | Gadolinium Content at the Injection Site (Paw) ([1]; 7 days p.i.) | Gadolinium Content in Kidneys [2] | Gadolinium Content in Liver [2] | Gadolinium Content in Spleen [2] | Gadolinium Content at the Injection Site (Paw) ([1]; 30 min. p.i.) | Gadolinium Content at the Injection Site (Paw) ([1]; 90 min. p.i.) | R1 in Plasma [3] | R1 in Water [3] | LD 50 [4] | MR signal in popliteal, inguinal and iliac lymph nodes of the injected body side vs non-injected side or precontrast [5] | Vd ss [6, 7] | α-t½ [6, 7] | β-t½ [6, 7] | distribution volume compared to Dy-DTPA [6] | blood concentrations compared with Dy-DTPA [6] | Vd ss [6, 8] | α-t½ [6, 8] | β-t½ [6, 8] |
| --- | --- | --- | --- | --- | --- | --- | --- | --- | --- | --- | --- | --- | --- | --- | --- | --- | --- | --- |
| CC(C(=O)NCC(=O)N(CCOCCO)CCOCCC(F)(F)C(F)(F)C(F)(F)C(F)(F)C(F)(F)C(F)(F)C(F)(F)C(F)(F)F)N1CCN(CC(=O)[O-])CCN(CC(=O)[O-])CCN(CC(=O)[O-])CC1.[Gd+3] (stereo not shown) [Example 3c] | 1.7% of dose | 0.1% of dose | 1.3% of dose | 0.0% of dose | 6.5% of dose | 4.9% of dose | 21.0 L/mmol/s | 14.0 L/mmol/s | 8 mmol of Gd/kg of body weight | strong signal increase |  |  |  |  |  |  |  |  |

Source: patent publication US6461587B1, “Perfluoroalkylamides, their production and their use in diagnosis” (Schering Aktiengesellschaft, priority 1999, dated 2002)
